The source of these data is ChEMBL document CHEMBL5441456, “ASAP - SARS-CoV-2 nsp3 macrodomain dose response” (2024).

SMILES strings stand for the structures. pIC50: −log10 of the molar value. “And” between values parts separate entries of the source, which are not always exact repeats. Equal entries are not always repeated.

This experiment has as its target Replicase polyprotein 1ab (Severe acute respiratory syndrome coronavirus 2, UniProt P0DTD1). The experiment is described as follows: Functional biochemical assay to identify treatments for viral infectious disease that targets SARS-COV-2 nsp3 macrodomain, whereby the mechanism of action displaces an ADP-Ribose modified peptide from the binding site. Utilizing a time-resolved fluorescence method to measure binding by reading the emitted fluorescence intensity in two wavelengths.
A word on the pIC50: it is the IC50 on a negative log10 scale, so that one unit is a factor of ten. Low readings indicate a large IC50, high ones a small IC50. Consider `CC(C)[C@@H](Nc1ncnc2[nH]c(-c3ccoc3C#N)cc12)c1ccc2c(c1)OCCO2`, for which the pIC50 was 5.57.

Compound `CC(C)[C@@H](Nc1ncnc2[nH]c(-c3cc(-c4ccccc4)n[nH]3)cc12)c1ccc2c(c1)OCCO2` had a pIC50 of less than 4.00.

Take `CCn1ncc(-c2cc3c(N[C@@H](c4ccc5c(c4)OCCO5)C(C)C)ncnc3[nH]2)n1`: the pIC50 was 5.97 and 5.91.

The compound `CC(C)[C@@H](Nc1ncnc2[nH]ccc12)c1ccc2c(c1)N(C)C(=O)CO2` showed a pIC50 of 4.17.

`CC(C)[C@@H](Nc1ncnc2[nH]ccc12)c1ccc2cn[nH]c2c1` showed a pIC50 of less than 4.00.

Take `CNCc1cc(-c2cc3c(N[C@@H](c4ccc5c(c4)OCCO5)C(C)C)ncnc3[nH]2)co1`: the pIC50 was 6.55 and 6.42.

On to `CC(C)[C@@H](Nc1ncnc2[nH]c(-c3ccnn3C)cc12)c1ccc2c(c1)OCCO2`, for which the pIC50 was 6.16 and 6.05 and 6.08.

Regarding `CCc1n[nH]cc1-c1cc2c(N[C@@H](c3ccc4c(c3)OCCO4)C(C)C)ncnc2[nH]1`, the pIC50 was 5.93 and 6.02.

`CC(C)[C@@H](Nc1ncnc2[nH]c(-c3cc[nH]c3)cc12)c1ccc2c(c1)OCCO2`: the pIC50 was 5.27 and 5.34.

As for `CC(C)[C@@H](Nc1ncnc2[nH]c(-c3cnn(-c4ccc(F)cc4)c3)cc12)c1ccc2c(c1)OCCO2`, the pIC50 was 4.56 and 4.59.

For the compound `COC(=O)c1coc(-c2cc3c(N[C@@H](c4ccc5c(c4)OCCO5)C(C)C)ncnc3[nH]2)c1`, the negative logarithm of the IC50 (pIC50) is 5.03 and 4.97 and 4.99.

Consider `CC(C)[C@@H](Nc1ncnc2[nH]c(-c3cnn(C)c3)cc12)c1ccc2c(c1)OCCO2`, for which the pIC50 was 6.27 and 6.21.

In the case of `Cc1noc2ncc(-c3cc4c(N[C@@H](c5ccc6c(c5)OCCO6)C(C)C)ncnc4[nH]3)cc12`, the pIC50 was 5.43 and 5.52.

Consider `CC(C)[C@@H](Nc1ncnc2[nH]c(-c3cnn(C4CC4)c3)cc12)c1ccc2c(c1)OCCO2`, for which the pIC50 was 6.00 and 5.91 and 5.95.

As to `Cc1n[nH]c(-c2cc3c(N[C@@H](c4ccc5c(c4)OCCO5)C(C)C)ncnc3[nH]2)c1C`, the pIC50 is 5.29 and 5.35.

`Cc1nnn(C)c1-c1cc2c(N[C@@H](c3ccc4c(c3)OCCO4)C(C)C)ncnc2[nH]1`: the pIC50 is 4.99 and 5.06.

In turn, `CC(C)[C@@H](Nc1ncnc2[nH]c(-c3cccc(CN4CCCS4(=O)=O)c3)cc12)c1ccc2c(c1)OCCO2` had a pIC50 of less than 4.00.

With `Cc1occc1-c1cc2c(N[C@@H](c3ccc4c(c3)OCCO4)C(C)C)ncnc2[nH]1`, the pIC50 is 5.07 and 5.05 and 5.02.

For the compound `Cc1cc(-c2cc3c(N[C@@H](c4ccc5c(c4)OCCO5)C(C)C)ncnc3[nH]2)nn1C`, the pIC50 was 5.55 and 5.79.

With `CC(C)[C@@H](Nc1ncnc2[nH]c(-c3cnc(C4CC4)o3)cc12)c1ccc2c(c1)OCCO2`, the pIC50 was 5.48 and 5.43.

Compound `CC(C)[C@@H](Nc1ncnc2[nH]c(-c3ccco3)cc12)c1ccc2c(c1)OCCO2` had a pIC50 of 5.21.

Take `CCCn1nccc1-c1cc2c(N[C@@H](c3ccc4c(c3)OCCO4)C(C)C)ncnc2[nH]1`: the pIC50 was 5.66 and 5.61 and 5.58.

As to `Cc1ccoc1-c1cc2c(N[C@@H](c3ccc4c(c3)OCCO4)C(C)C)ncnc2[nH]1`, the pIC50 was 4.36 and 4.40.

For the compound `CC(C)[C@@H](Nc1ncnc2[nH]c(-c3cncc(C(=O)N(C)C)c3)cc12)c1ccc2c(c1)OCCO2`, the pIC50 was 6.13 and 6.09.

As to `CC(C)[C@@H](Nc1ncnc2[nH]c(-c3cccc(CN4CCS(=O)(=O)CC4)c3)cc12)c1ccc2c(c1)OCCO2`, the pIC50 was 5.49 and 5.46 and 5.45.

`CC(C)[C@@H](Nc1ncnc2[nH]ccc12)c1ccc2c(c1)NC(=O)[C@@H](C)O2`: the pIC50 is 5.57 and 5.54.

Consider `CCn1nccc1-c1cc2c(N[C@@H](c3ccc4c(c3)OCCO4)C(C)C)ncnc2[nH]1`, for which the pIC50 is 6.05 and 5.85 and 5.89.

`CC(C)[C@@H](Nc1ncnc2[nH]c(-c3cccc(Cn4ccnc4)c3)cc12)c1ccc2c(c1)OCCO2` had a pIC50 of less than 4.00.

For `Cc1c(-c2cc3c(N[C@@H](c4ccc5c(c4)OCCO5)C(C)C)ncnc3[nH]2)cnn1C`, the pIC50 was 6.19 and 6.15.

On to `CC(C)[C@@H](Nc1ncnc2[nH]c(-c3ccc(C#N)nc3)cc12)c1ccc2c(c1)OCCO2`, for which the pIC50 was 5.73 and 5.67.

Turning to `CC(C)[C@@H](Nc1ncnc2[nH]c(-c3cn(C)nc3C3CC3)cc12)c1ccc2c(c1)OCCO2`, the negative logarithm of the IC50 (pIC50) is 5.92 and 5.93.

For `CC(C)[C@@H](Nc1ncnc2[nH]c(-c3cnc4c(c3)CC(=O)N4)cc12)c1ccc2c(c1)OCCO2`, the pIC50 was 5.89 and 5.82.

`CC(C)[C@@H](Nc1ncnc2[nH]c(-c3cn[nH]c3)cc12)c1ccc2c(c1)OCCO2`: the pIC50 was 6.15 and 6.13.

`COC(=O)c1cc(-c2cc3c(N[C@@H](c4ccc5c(c4)OCCO5)C(C)C)ncnc3[nH]2)c[nH]1` gave a pIC50 of 5.30.

As for `CC(C)[C@@H](Nc1ncnc2[nH]c(-c3cc4c(C#N)cccc4[nH]3)cc12)c1ccc2c(c1)OCCO2`, the pIC50 was less than 4.00.

On to `CNC(=O)c1cc2c(N[C@@H](c3ccc4c(c3)NC(=O)CO4)C(C)C)ncnc2[nH]1`, for which the pIC50 is 6.79 and 6.84 and 6.81.

Take `Cc1ncc(-c2cc3c(N[C@@H](c4ccc5c(c4)OCCO5)C(C)C)ncnc3[nH]2)n1C`: the pIC50 was 6.17 and 6.15.

`CC(C)[C@@H](Nc1ncnc2[nH]ccc12)c1ccc2c(n1)NC(=O)CO2`: the pIC50 is 5.58 and 5.57.

Regarding `Cc1ncc(-c2cc3c(N[C@@H](c4ccc5c(c4)OCCO5)C(C)C)ncnc3[nH]2)o1`, the pIC50 is 5.94 and 5.87 and 5.85.

In the case of `CC(C)[C@@H](Nc1ncnc2[nH]c(-c3cnn(C4CCC4)c3)cc12)c1ccc2c(c1)OCCO2`, the pIC50 was 5.93 and 5.82 and 5.85.

For `Cc1ccc(-c2cc3c(N[C@@H](c4ccc5c(c4)OCCO5)C(C)C)ncnc3[nH]2)o1`, the negative logarithm of the IC50 (pIC50) was 4.39 and 4.43.

`Cc1cn[nH]c1-c1cc2c(N[C@@H](c3ccc4c(c3)OCCO4)C(C)C)ncnc2[nH]1`: the pIC50 was 5.17 and 5.05 and 5.06.

Turning to `CC(C)[C@@H](Nc1ncnc2[nH]c(-c3ccc(S(N)(=O)=O)cc3)cc12)c1ccc2c(c1)OCCO2`, the pIC50 is 5.79 and 5.74.

On to `COCCn1cc(-c2cc3c(N[C@@H](c4ccc5c(c4)OCCO5)C(C)C)ncnc3[nH]2)c(C#N)n1`, for which the pIC50 is 6.17 and 6.06.

With `CNC(=O)c1cccc(-c2cc3c(N[C@@H](c4ccc5c(c4)OCCO5)C(C)C)ncnc3[nH]2)c1`, the pIC50 is 6.38 and 6.32 and 6.42.

For the compound `CC(C)[C@@H](Nc1ncnc2[nH]c(-c3ccc(CC#N)cc3)cc12)c1ccc2c(c1)OCCO2`, the pIC50 was 4.58 and 4.54.

Consider `CC(C)[C@@H](Nc1ncnc2[nH]c(-c3cnn(C(C)C)c3)cc12)c1ccc2c(c1)OCCO2`, for which the pIC50 was 6.12 and 6.02 and 6.06.

`Cc1cn(C)nc1-c1cc2c(N[C@@H](c3ccc4c(c3)OCCO4)C(C)C)ncnc2[nH]1` showed a pIC50 of less than 4.00.

`CC(C)[C@@H](Nc1ncnc2[nH]c(-c3ccc4nccn4c3)cc12)c1ccc2c(c1)OCCO2`: the pIC50 is 5.94 and 5.86.

Regarding `CC(C)[C@@H](Nc1ncnc2[nH]c(-c3cnn(CC(N)=O)c3)cc12)c1ccc2c(n1)NC(=O)CO2`, the pIC50 is 6.60 and 6.52 and 6.45.

`Cc1nn(C)cc1-c1cc2c(N[C@@H](c3ccc4c(c3)OCCO4)C(C)C)ncnc2[nH]1`: the pIC50 is 6.39 and 6.31 and 6.33.

Turning to `Cc1cc(-c2cc3c(N[C@@H](c4ccc5c(c4)OCCO5)C(C)C)ncnc3[nH]2)c[nH]1`, the pIC50 was 5.02 and 4.99.

Regarding `CC(C)[C@@H](Nc1ncnc2[nH]c(-c3cnn(CC4(C#N)CC4)c3)cc12)c1ccc2c(c1)OCCO2`, the pIC50 was 6.38 and 6.35.

For `CC(C)[C@@H](Nc1ncnc2[nH]c(-c3ccnn3C(C)C)cc12)c1ccc2c(c1)OCCO2`, the pIC50 was 5.52 and 5.53.

In the case of `Cc1nn(CC(N)=O)cc1-c1cc2c(N[C@@H](c3ccc4c(c3)OCCO4)C(C)C)ncnc2[nH]1`, the pIC50 is 6.48 and 6.47.

Take `CC(C)[C@@H](Nc1ncnc2[nH]c(-c3cnn(C(C)C)n3)cc12)c1ccc2c(c1)OCCO2`: the pIC50 was 5.77 and 5.67.
